Test results published in publication PMC10303371, “Activity and Selectivity of Novel Chemical Metallic Complexes with Potential Anticancer Effects on Melanoma Cells” (Molecules, 2023).
Where two headings read alike, the source gives them in different places.

Key:
[1] = Hydrolytic stability by 1H-NMR; type: physicochemical; settings: D2O-10% of DMSO-d6; 0 h, 2 h, 4 h, 24 h, 48 h and 72 h
Text: 10% of DMSO-d6, following the procedure in ref. [23]. Figures S3–S6 show the 1H-NMR […]
time. These preliminary studies can be reasonably extended to all synthesized complexes because they have a similar structure. Thus, it is possible to affirm th at these complexes are […]
(1 picture or pasted object on this page, not shown here)

MeWo 3D culture = assay: Live/Dead assay on 3D MeWo cultures (spheroids); type: cell-based, human; settings: 3D MeWo culture, 5 μM, 24 h, semi-quantitative
Text: High density 3D cultures were obtained using 96-well ultra-low attachment microplates (Corning, Manassas, VA, USA). Briefly, MeWo cells were resuspended at a density of 500.000 cells/mL. […] For the cell viability assay, the average value of 10 3D-systems (n = 3) were considered.
Cell viability of 3D cultures was detected by fluorescence Live/Dead assay after cellular aggregate formation. Calcein AM solution (Cat. no C1359, Sigma-Aldrich) was used to stain live cells, while cell membrane-impermeable Ethidium homodimer I solution (Cat. no E1903, Sigma-Aldrich) for nuclei of dead cells.

MeWo cells [2] = assay: MTT cell viability assay on 2D MeWo culture; type: cell-based, human; settings: for inhibition of MeWo viability / decrease in cell viability: 20 μM; for inhibition of MeWo viability / change of cell viability (in words): 24 h
Protocol: (§1) IC50 values for MeWo cells were calculated with GraphPad Prism software (6.0 for Windows, LLC, San Diego, CA, USA).
(§2) Then, the supernatant was removed and 100 μL of dimethyl sulfoxide (DMSO) was added to solubilize formazan crystals. The absorbance was measured at 490 nm using a microplate reader (Infinite F200 PRO, Tecan Group Ltd., Männedorf, Switzerland) Cell metabolic activity was calculated as percentage compared to the control group (considered as 100%), according to Equation (1):(1) % Cell metabolic activity=Abs of sample−Abs blank/Abs of control−Abs blank×100

MeWo cells [3] = assay: Time-Lapse Live-Cell Imaging of 2D MeWo culture; type: cell-based, human; settings: 20 μM
Protocol: MeWo culture was performed using Time-Lapse Live-Cell Imaging System formed by a Bold Line Top Stage Incubator for 35 mm Petri dishes (H301-T UNIT BL; Okolab S.r.l., Pozzuoli, Italy), that allows the acquisition of the same field along the culture time in fixed culture point mapped by the fully automated stage. The incubator has independent control of gas (CO2/O2), humidity and temperature, and ensured an environment with 37 °C of temperature and 5% of CO2 atmosphere. The system allows acquisition in brightfield and fluorescence. All images of different fields within the culture chamber were achieved automatically, using Olympus IX83 time-lapse microscope by motorized stage and CCD monochrome camera (mod. XM10, Olympus, Segrate, Italy), and with all operations under the control of the X-Excellence advanced live-cell imaging software (version 2.0, Olympus Inc., Segrate, Italy). In our case, cell images were captured in brightfield using a 10× objective every 4 h intervals. The related videos reported in Supplementary Materials were generated with windows movie maker software (version 2.0, Microsoft) starting from the acquired frames.

Thermal stability = type: physicochemical; settings: decompose before melting
HaCaT cells = assay: MTT selectivity study on HaCaT non-cancerous cell line; type: cell-based, human; settings: 5 μM, 48 h
Protocol: as §1, §2

histone H2AX = assay: Western blot of histone H2AX phosphorylation in MeWo cells; type: cell-based, human; settings: 20 μM
Protocol: (§3) Human melanoma cells (MeWo; ATCC®, HTB-65^TM) were grown in 100 mm Petri Dishes at a density of 1.5 × 10^4 cells/cm^2 and treated with 20 μM of AuM1 (5′-15′-30′-1 h) and AgM1 (5′-15′-30′-1 h-24 h). After treatments, cells were harvested and lysed in RIPA buffer (NaCl 150 mM, 1% triton X-100 pH 8.0, 0.5% sodium deoxycholate, 0.1% SDS, 50 mM Tris, pH 8.0), supplemented with protease inhibitors cocktail and phosphatase inhibitors (Merck), 1 h on ice. Lysates were then centrifuged for 30 min at 15,000× g and supernatant were transferred to a new 1.5 mL tube. Protein amount was determined by Bradford assay (Bio-Rad, Hercules, CA, USA) and 15 μg of total protein extracts were separated by SDS–PAGE gels and transferred onto nitrocellulose membranes. […] Immunoreactivity was detected by sequential incubation with appropriate horseradish peroxidase-conjugated secondary antibodies (Merck) for 1 h at room temperature and Pierce ECL detection reagents (Thermo Scientific, Rockford, IL, USA) on an X-ray film. […] The area under the curves, each relative to a band, was determined and the background was subtracted from the calculated values.

MeWo cells [4] = assay: Apoptosis by Annexin V / propidium iodide flow cytometry; type: cell-based, human; settings: 20 μM
Protocol: Annexin V FITC Apoptosis Detection Kit (Cat. […] Then, 5 μL of Annexin V FITC Conjugate and 5 μL of propidium Iodide PE Solution were added to 100 μL of the cell suspension (1 × 10^6 cells/mL). After incubation for 15 min at room temperature with light protection, 400 μL of Annexin V Binding Solution was added for flow cytometry analysis.

p-ERK 1/2 = assay: Western blot of ERK phosphorylation in MeWo cells; type: cell-based, human; settings: 20 μM
Protocol: as §3

MeWo cells [5] = assay: Cell cycle analysis by DNA content (propidium iodide) flow cytometry; type: cell-based, human; settings: 48 h
Protocol: Human melanoma cells (MeWo, HTB-65^TM; ATCC®, Manassas, VA, USA) were grown in 24-well plates at a density of 1 × 10^4 cells/cm^2 and treated with AuM1 (at 1 μM and 5 μM) and AgM1 (at 10 μM and 20 μM) for 24 h and 48 h. After treatments, cells were transferred in 15 mL polypropylene V-bottomed tubes, rinsed twice in ice cold PBS, and stained in freshly prepared PBS buffer containing 1 mg/mL propidium iodide (PI) (Merck Life Science S.r.l., Milan, Italy), 110,000 U/mL RNase A (Merck) and 0.1% Triton X-100 (Merck Life Science S.r.l., Milan, Italy). Cells were incubated 30 min at 4 °C in the dark and analysed with a BD FACSVerse flow cytometer (Becton Dickinson, BD, Franklin Lakes, NJ, USA) counting 1 × 10^4 events per sample. G1, S and G2/M cell cycle phase percentages were analysed by ModFit LT software (version 3.0).

[6] = 5 μM, screening of derivatives, MTT
[7] = MeWo, MTT, 24 h of treatment, read-out: IC50 24 h
[8] = MeWo, MTT, 48 h of treatment, read-out: IC50 48 h

| SMILES | hydrolytic stability (1H-NMR spectra over time) [1] | red signal (dead cells), Live/Dead assay (MeWo 3D culture) [%] | time of treatment after which cell death was observed (MeWo cells [3]) [h] | inhibition of MeWo viability (MeWo cells [2]) | reduction of cell viability (MeWo cells [2]; MeWo, 10 μM, 48 h) | decrease in cell viability (MeWo cells [2]; MeWo, 48 h) | IC50 (MeWo cells [2]; [7]) [µM] | IC50 (MeWo cells [2]; [8]) [µM] | other results |
| --- | --- | --- | --- | --- | --- | --- | --- | --- | --- |
| CC(C)(C)OC(=O)N[C@@H](Cc1ccccc1)C(=O)[O-].[Ag+] [PheAg, Boc-L-Phenylalanine silver salt] | no changes are observed | 50 | – | – | – | – | – | – | MeWo viability reduction (MeWo cells [2]; [6]): up to 80% |
| N.N.[Cl][Pt][Cl] [cisplatin, reference compound] | – | – | – | – | – | – | – | – | inhibition of MeWo cultures (MeWo cells [2]; even at 20 μM): not inhibited |
| C[n+]1ccn(CC(O)c2ccccc2)[c]1[Ag-][I] (racemic) [AgL20] | – | – | > 96 | able to inhibit MeWo viability | about 10% | more than 50% | ~19.4 | 18.3 | change of cell viability (in words) (MeWo cells [2]; MeWo, 10 μM): apparent increase in cell viability |
| CC(C)(C)OC(=O)N[C@@H](Cc1ccccc1)C(=O)O.CN1[CH-]N(CC(O)c2ccccc2)C(Cl)=C1Cl.[Au+] [AuM1Phe] | no changes are observed | 60 | – | – | – | – | – | – | – |
| Cn1c(Cl)c(Cl)[n+](CC(O)c2ccccc2)[c]1[Ag-][O]C(=O)CNC(=O)OC(C)(C)C (stereo not drawn) [AgM1Gly] | no changes are observed | – | – | – | – | – | – | – | thermally stable up to temperature (Thermal stability): around 150 °C |
| CC(C)(C)OC(=O)NCC(=O)[O-].[Ag+] [GlyAg, Boc-Glycine silver salt] | – | – | – | – | – | – | – | – | MeWo viability reduction (MeWo cells [2]; [6]): up to 80% |
| C[n+]1c(Cl)c(Cl)n(CC(O)c2ccccc2)[c]1[Au-][Cl] (racemic) [AuM1] | no changes are observed | 45 | 8 | able to inhibit MeWo viability | – | more than 50% | 5.48 | 3.12 | HaCaT viability (HaCaT cells): 70%; selectivity MeWo vs HaCaT (in words) (HaCaT cells): most selective; phosphorylation of histone H2AX (histone H2AX; already after 5 min (5'-15'-30'-1 h)): significant and marked increase; apoptotic cells (MeWo cells [4]; 8 h of exposure, control 11.7%): 63.8%; ERK phosphorylation (p-ERK) (p-ERK 1/2): pronounced and significant decrease; cell cycle progression (MeWo cells [5]; 5 μM): G0/G1 phase cell cycle arrest; MeWo viability (MeWo cells [2]; 5 μM, 48 h): 30%; MeWo viability reduction (MeWo cells [2]; 5 μM, 48 h): 70%; reduction of cell viability (MeWo cells [2]; MeWo, 48 h, concentration not restated, by context 10 μM): 95% |
| C[n+]1ccn(CC(O)c2ccccc2)[c]1[Au-][Cl] (racemic) [AuL20] | – | – | > 40 | able to inhibit MeWo viability | about 10% | 25% | ~24.6 | 31.1 | change of cell viability (in words) (MeWo cells [2]; MeWo, 10 μM): apparent increase in cell viability |
| C[n+]1c(Cl)c(Cl)n(CC(O)c2ccccc2)[c]1[Ag-][I] (racemic) [AgM1] | – | – | 96 | able to inhibit MeWo viability | about 10% | more than 50% | 15.4 | 14.8 | phosphorylation of histone H2AX (histone H2AX; at 5'-30'-1 h): significantly increase; apoptotic cells (MeWo cells [4]; 96 h of treatment): ~6.7%; ERK phosphorylation (p-ERK) (p-ERK 1/2): pronounced and significant decrease; cell cycle progression (MeWo cells [5]; 20 μM): G0/G1 phase cell cycle arrest; reduction in cell viability (MeWo cells [2]; MeWo, 1 μM, 48 h): 30%; Minimum Inhibitory Concentration (MIC) (MeWo cells [2]; MeWo, 48 h): 1 µM |
